Measurements: patent US12285393B2, “Roles of modulators of intersectin-Cdc42 signaling in Alzheimer's disease” (priority 2017, dated 2025)

Key:
[1] = target: T1, Rac1 (Homo sapiens, UniProt P63000); test: Rho-GEF IC50 assay (GEF/DH domain-mediated mant-GTP binding); format: biochemical
T1 construct: purchased Cytoskeleton Inc
Protocol: (§1) Rho-GEF IC50 Assay: Rho-GEF assay (Cytoskeleton Inc., Denver, Colorado, United States of America) was conducted per manufacturer's instructions (λex=360 nm, λem=460 nm). Briefly, a solution (50 μL) of purified Rho GTPase (1 μM) and mant-GTP (1.5 μM) with or without compound (0.001-500 μM) was prepared and the absorbance monitored for 10-30 min to obtain the background/baseline. The addition of purified GEF/DH domain (0.08-0.2 μM) was carried out simultaneously and the absorbance was recorded for 30-45 min. The linear slope following the addition of the GEF was calculated and expressed as percentage of the control and plotted on an IC50 curve.

[2] = target: T2, RhoA (Homo sapiens, UniProt P61586); test: as above; format: biochemical
T2 construct: purchased Cytoskeleton Inc
T2 sequence (P61586 whole entry): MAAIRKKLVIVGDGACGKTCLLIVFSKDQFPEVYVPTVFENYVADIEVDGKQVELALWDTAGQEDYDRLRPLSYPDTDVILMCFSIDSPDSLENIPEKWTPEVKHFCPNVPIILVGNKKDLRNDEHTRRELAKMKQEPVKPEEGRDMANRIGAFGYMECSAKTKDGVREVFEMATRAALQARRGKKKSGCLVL
Protocol: as §1

[3] = target: T3, Rac1 (Mus musculus, UniProt P63001); test: G-LISA in serum-starved Swiss 3T3 cells; format: cell-based; conditions: 50 μM
T3 construct: endogenous in cells; host or cells: Swiss 3T3 cells

[4] = target: T4, Cdc42 (Homo sapiens, UniProt P60953); test: Rho-GEF IC50 assay (GEF/DH domain-mediated mant-GTP binding); format: biochemical; set-up: purchased Cytoskeleton Inc; conditions: read-out: IC50, GEF/DH domain-mediated mant-GTP binding/Cdc42 activation
T4 sequence (P60953 whole entry, the tested form may be a part): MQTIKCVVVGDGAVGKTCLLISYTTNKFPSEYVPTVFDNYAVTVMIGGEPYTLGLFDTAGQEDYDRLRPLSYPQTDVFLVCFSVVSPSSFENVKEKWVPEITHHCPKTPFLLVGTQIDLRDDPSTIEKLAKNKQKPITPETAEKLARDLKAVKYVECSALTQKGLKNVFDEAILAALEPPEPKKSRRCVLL
Protocol: as §1

[5] = target: T4, Cdc42; test: Cdc42-GEF-assay, additional compound screening; format: biochemical; set-up: purchased Cytoskeleton Inc; conditions: percentages of ZCL278 activity normalized to batch; more than 100% = more potent activator; Table 9
Protocol: as §1
Cdc42 (1 μM) was incubated with mant-GTP (1.5 μM) and varying concentrations of ZCL278, ZCL279, or ZCL367 (5-500 μM). Fluorescent readings were taken every minute for 10 m to acquire the baseline. The GEF/DH domain (0.08-0.2 μM) was added followed by readings taken every minute for another 30 m. The linear phase was calculated from within the time period of 12-22 m. Cdc42 (1 μM) was incubated with mant-GTP (1.5 μM) and varying concentrations of ZCL278, ZCL279, or ZCL367 (5-500 μM). Fluorescent readings were taken every minute for 30 m to monitor the binding of mant-GTP in the absence of GEF/DH domain.
Cdc42-GEF-assays were conducted on additional screening compounds in batches of 9 compounds per batch as described above in Example 2 using ZCL278 and ZCL367 as standards. Screening compounds were taken from the Specs Chemistry Database of 197,000 compounds for small molecule or the National Cancer Institute Compound Library. […] These compounds promote Cdc42-mantGTP binding without GEF. It is possible that these compounds can inhibit Cdc42-mantGTP binding with GEF. […] These compounds appear to have activity like ZCL279. […] However, upon the addition of GEF, the compounds appear to facilitate the binding of mantGTP to Cdc42 (high assay slope, relative to ZCL278)

[6] = system: 3×Tg-AD mice; test: Burrowing test; format: in vivo; conditions: 3×Tg AD mouse model; 20 μg/g I.P. once a week, 4 weeks
Description: (§2) Six-month-old C57/BL6 (WT) and 3×Tg-AD mice with an average weight of 24 g from Jackson Laboratory (Bar Harbor, Maine, United States of America) were used. The 3×Tg-AD mice in hybrid 129/C57BL/6 background contain two mutant human transgenes, hAPP harboring Swedish mutation (hAPPswe) and mutant htau (htau301L) under a neuron-specific promoter, and also contain the knock-in mutant presenilin 1 (PS1M146V). See Oddo et al. (2003) Neuron 39:409-421). 3×Tg-AD mice were received from Jackson Laboratory as Psen1 B6:129-Psen1<tmMpm>Tg(APPSwetauP301L)1Lfa/J and the wild type control as SF2: (B6129SF1/J+p+Tyr-c+Mgf-SIJ)F2. All mice were subjected to two weeks of training for familiarizing behavioral test procedures. Subsequently, mice were assayed to establish a baseline of behavior tests before ZCL compound treatment. Then, mice were separated into three treatment groups (Control, ZCL278 and ZCL279). Both ZCL278 and ZCL279 were dissolved in sesame oil with 5% DMSO and each treatment was administrated via an intraperitoneal injection. All treatment groups of mice were treated once a week. Control group was treated with 130 μl 5% DMSO in sesame oil. […]
Burrowing test: At least 2.5 hours before the start of the dark cycle (4:30 pm), mice from each selected treatment group were housed in individual cages. […] After 2 hours, the food left in the tube was measured.

[7] = system: 3×Tg-AD mice; test: Morris water maze test; format: in vivo
Description: as §2, with “ZCL279).” for “ZCL279). Both ZCL278 and ZCL279 were dissolved in sesame oil with 5% DMSO and each treatment was administrated via an intraperitoneal injection. All treatment groups of mice were treated once a week. Control group was treated with 130 μl 5% DMSO in sesame oil.”
Mice were trained to swim to a 14 cm diameter circular clear Plexiglas platform submerged 1.5 cm beneath the surface of the water and invisible to the mice while swimming. […] Retention of the spatial training was assessed at 1.5 hr and again at 24 hr after the last training trial. […] Mice were monitored by a camera mounted in the ceiling directly above the pool, and all trials were stored on videotape for subsequent analysis.

Row | Structure (SMILES) | IC50 [1] | IC50 [2] | effect on Rac1 [3] | IC50 [4] | % ZCL278 (activator activity) [5] | instinctual behavior: food burrowing [6] | spatial memory ability compared with WT mice ([7]; 3×Tg AD mice, Day 4) | spatial memory ability (latency in finding the submerged platform) ([7]; AD mouse model)
1 | Cc1cc(C)nc(NS(=O)(=O)c2ccc(NC(=S)NC(=O)COc3ccc(Br)cc3Cl)cc2)n1 [ZCL278, 4-(3-(2-(4-bromo-2-chloro-phenoxy)-acetyl)-thioureido)-N-(4,6-dimethylpyrimidin-2-yl)-benzenesulfonamide] | ≥ 500 µM | ≥ 500 µM | inhibits Rac1 | 7.52 µM | 100% |  |  | 
2 | O=S(=O)(Nc1ccccc1O)c1ccc2oc3ccc(S(=O)(=O)Nc4ccccc4O)cc3c2c1 [ZCL279, N^2,N^8-bis(2-hydroxyphenyl)dibenzo[b,d]furan-2,8-disulfonamide] |  |  |  |  |  | improve instinctual behavior | appeared similar to WT mice | improves spatial memory ability
